Assay results from US8906909B2 (Curis, Inc., priority 2009, dated 2014).

What was measured:
PI3Kα (p110α/p85α) = target: T1, PI3Kα (p110α/p85α) (Homo sapiens, UniProt P42336); assay: PI3Kα fluorescence polarization assay; type: biochemical; details: 10 μM ATP
T1 construct: N-terminal histidine-tagged recombinant full-length human p110α; His tag (N); made in house; host or cells: Baculovirus-infected Sf9 insect cells
Protocol: (a) An In Vitro Assay which Determines the Ability of a Test Compound to Inhibit PI3Kα.
Activity of PI3Kα was measured using fluorescence polarization assay. PI3Kα, a complex of N-terminal histidine-tagged recombinant full-length human p110α and untagged recombinant full length human p85α were coexpressed in a Baculovirus infected Sf9 cell expression system. (GenBank Accession No. for p110α, U79143; for p85α, XM—043865). The proteins are purified by one-step affinity chromatography using glutathione-agarose. A competition assay was performed to measure the amount of PIP3 generated from PIP2 in the presence of purified recombinant PI3Kα (p110α/p85α). PI3K a was incubated with 10 μM PIP2 substrate in the reaction buffer (20 mM HEPES, pH 7.5, 10 mM NaCl, 4 mM MgCl2, 2 mM DTT, 10 μM ATP and 1% DMSO) for 1 hour at 30° C. The reaction product was then mixed with a PIP3 detector protein and the fluorescent PIP3 probe. Polarization (mP) values decrease as fluorescent probe binding to the PIP3 detector is displaced by PIP3 produced by enzymatic activity and the amount of unbound fluorescent probe in the mixture increases. Polarization degrees (mP) value was determined using microplate reader with background subtraction.

[1] = tested on: HDACs (HeLa cell nuclear extracts); assay: HDAC enzymatic activity, Biomol Color de Lys system; type: biochemical
In short: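 IC50 from sigmoidal dose-response fits of fluorescence (Ex 350–380, Em 440–460 nm). Compounds in DMSO dilution series incubated 1 h at 25 °C with HeLa nuclear extract HDACs and colorimetric substrate, pH 8.0 Tris/Cl buffer with NaCl, KCl, MgCl2, before developer termination.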

HCC1806 cells = assay: Cell proliferation assay Method B, HCC1806; type: cell-based; details: Homo sapiens, Breast, 72 hours, read-out: antiproliferative activity IC50, HCC1806
Protocol: (§1) Cancer cell lines were plated at 5,000 to 10,000 per well in 96-well flat bottomed plates with various concentration of compounds. The cells were incubated with compounds for 72 hours in the presence of 0.5% of fetal bovine serum. Growth inhibition was accessed by adenosine triphosphate (ATP) content assay using Promega CellTiter-Glo kit. Promega CellTiter-Glo kit is an ATP monitoring system based on firefly luciferase. Briefly, 16 μl of mammalian cell lysis and substrate solution was added to 84 μl of culture medium per well to lyse the cells and stabilize the ATP. The mixture was shaken and incubated for 30 minutes and subsequently the luminescence was measured.

SKBr3 cells = assay: Cell proliferation assay Method B, SKBr3; type: cell-based; details: Homo sapiens, SK-BR-3, Breast, 72 hours, read-out: antiproliferative activity IC50, SKBr3
Protocol: as §1

BT474 cells = assay: Cell proliferation assay Method B, BT474; type: cell-based; details: Homo sapiens, BT-474; Breast; Method B; 72 hours; read-out: antiproliferative activity IC50, BT474
Protocol: as §1

MDA-MB-361 cells = assay: Cell proliferation assay Method B, MDA-MB-361; type: cell-based; details: Homo sapiens, Breast, 72 hours, read-out: antiproliferative activity IC50, MDA-MB-361
Protocol: as §1

MDA-MB-453 cells = assay: Cell proliferation assay Method B, MDA-MB-453; type: cell-based; details: Homo sapiens, Breast, 72 hours, read-out: antiproliferative activity IC50, MDA-MB-453
Protocol: as §1

MCF-7 cells = assay: Cell proliferation assay Method B, MCF-7; type: cell-based; details: Homo sapiens, MCF7, Breast, 72 hours, read-out: antiproliferative activity IC50, MCF-7
Protocol: as §1

T47D cells = assay: Cell proliferation assay Method B, T47D; type: cell-based; details: Homo sapiens, Breast, 72 hours, read-out: antiproliferative activity IC50, T47D
Protocol: as §1

ZR-75-1 cells = assay: Cell proliferation assay Method B, ZR-75-1; type: cell-based; details: Homo sapiens, Breast, 72 hours, read-out: antiproliferative activity IC50, ZR-75-1
Protocol: as §1

MOLT-4 cells = assay: Cell proliferation assay Method B, MOLT-4; type: cell-based; details: Homo sapiens, ALL, 72 hours, read-out: antiproliferative activity IC50, MOLT-4
Protocol: as §1

HL-60 cells = assay: Cell proliferation assay Method B, HL-60; type: cell-based; details: Homo sapiens, AML, 72 hours, read-out: antiproliferative activity IC50, HL-60
Protocol: as §1

U937 cells = assay: Cell proliferation assay Method B, U937; type: cell-based; details: Homo sapiens, U-937, AML, 72 hours, read-out: antiproliferative activity IC50, U937
Protocol: as §1

THP-1 cells = assay: Cell proliferation assay Method B, THP-1; type: cell-based; details: Homo sapiens, AML, 72 hours, read-out: antiproliferative activity IC50, THP-1
Protocol: as §1

MV-4-11 cells = assay: Cell proliferation assay Method B, MV-4-11; type: cell-based; details: Homo sapiens, MV4-11, AML, 72 hours, read-out: antiproliferative activity IC50, MV-4-11
Protocol: as §1

Pfeiffer cells = assay: Cell proliferation assay Method B, Pfeiffer; type: cell-based; details: Homo sapiens, NHL, 72 hours, read-out: antiproliferative activity IC50, Pfeiffer
Protocol: as §1

Raji cells = assay: Cell proliferation assay Method B, Raji; type: cell-based; details: Homo sapiens, NHL, 72 hours, read-out: antiproliferative activity IC50, Raji
Protocol: as §1

Daudi cells = assay: Cell proliferation assay Method B, Daudi; type: cell-based; details: Homo sapiens, NHL, 72 hours, read-out: antiproliferative activity IC50, Daudi
Protocol: as §1

K562 cells = assay: Cell proliferation assay Method B, K562; type: cell-based; details: Homo sapiens, CML, 72 hours, read-out: antiproliferative activity IC50, K562
Protocol: as §1

RPMI-8226 cells = assay: Cell proliferation assay Method B, RPMI-8226; type: cell-based; details: Homo sapiens, Multiple Myeloma, Method B, 72 hours, read-out: antiproliferative activity IC50, RPMI-8226
Protocol: as §1

ARH77 cells = assay: Cell proliferation assay Method B, ARH77; type: cell-based; details: Homo sapiens, ARH-77, Multiple Myeloma, 72 hours, read-out: antiproliferative activity IC50, ARH77
Protocol: as §1

L1210 cells = assay: Cell proliferation assay Method B, L1210; type: cell-based; details: Mouse LL, 72 hours, read-out: antiproliferative activity IC50, L1210
Protocol: as §1

P388 D1 cells = assay: Cell proliferation assay Method B, P388 D1; type: cell-based; details: P388D1, Mouse Lymphoma, 72 hours, read-out: antiproliferative activity IC50, P388 D1
Protocol: as §1

MDA-MB-231 cells = assay: Cell proliferation assay Method B, MDA-MB-231; type: cell-based; details: Homo sapiens, Breast, Method B, 72 hours, read-out: antiproliferative activity IC50, MDA-MB-231 (second listing, r32)
Protocol: as §1

HCC1500 cells = assay: Cell proliferation assay Method B, HCC1500; type: cell-based; details: Breast, 72 hours, read-out: antiproliferative activity IC50, HCC1500
Protocol: as §1

UACC-893 cells = assay: Cell proliferation assay Method B, UACC-893; type: cell-based; details: Homo sapiens, Breast, 72 hours, read-out: antiproliferative activity IC50, UACC-893
Protocol: as §1

MDA-MB-468 cells = assay: Cell proliferation assay Method B, MDA-MB-468; type: cell-based; details: Homo sapiens, Breast, Method B, 72 hours, read-out: antiproliferative activity IC50, MDA-MB-468
Protocol: as §1

SUP-B15 cells = assay: Cell proliferation assay Method B, SUP-B15; type: cell-based; details: Homo sapiens, ALL, 72 hours, read-out: antiproliferative activity IC50, SUP-B15
Protocol: as §1

MEG-01 cells = assay: Cell proliferation assay Method B, MEG-01; type: cell-based; details: Homo sapiens, CML, 72 hours, read-out: antiproliferative activity IC50, MEG-01
Protocol: as §1

T1 sequence (P42336 whole entry): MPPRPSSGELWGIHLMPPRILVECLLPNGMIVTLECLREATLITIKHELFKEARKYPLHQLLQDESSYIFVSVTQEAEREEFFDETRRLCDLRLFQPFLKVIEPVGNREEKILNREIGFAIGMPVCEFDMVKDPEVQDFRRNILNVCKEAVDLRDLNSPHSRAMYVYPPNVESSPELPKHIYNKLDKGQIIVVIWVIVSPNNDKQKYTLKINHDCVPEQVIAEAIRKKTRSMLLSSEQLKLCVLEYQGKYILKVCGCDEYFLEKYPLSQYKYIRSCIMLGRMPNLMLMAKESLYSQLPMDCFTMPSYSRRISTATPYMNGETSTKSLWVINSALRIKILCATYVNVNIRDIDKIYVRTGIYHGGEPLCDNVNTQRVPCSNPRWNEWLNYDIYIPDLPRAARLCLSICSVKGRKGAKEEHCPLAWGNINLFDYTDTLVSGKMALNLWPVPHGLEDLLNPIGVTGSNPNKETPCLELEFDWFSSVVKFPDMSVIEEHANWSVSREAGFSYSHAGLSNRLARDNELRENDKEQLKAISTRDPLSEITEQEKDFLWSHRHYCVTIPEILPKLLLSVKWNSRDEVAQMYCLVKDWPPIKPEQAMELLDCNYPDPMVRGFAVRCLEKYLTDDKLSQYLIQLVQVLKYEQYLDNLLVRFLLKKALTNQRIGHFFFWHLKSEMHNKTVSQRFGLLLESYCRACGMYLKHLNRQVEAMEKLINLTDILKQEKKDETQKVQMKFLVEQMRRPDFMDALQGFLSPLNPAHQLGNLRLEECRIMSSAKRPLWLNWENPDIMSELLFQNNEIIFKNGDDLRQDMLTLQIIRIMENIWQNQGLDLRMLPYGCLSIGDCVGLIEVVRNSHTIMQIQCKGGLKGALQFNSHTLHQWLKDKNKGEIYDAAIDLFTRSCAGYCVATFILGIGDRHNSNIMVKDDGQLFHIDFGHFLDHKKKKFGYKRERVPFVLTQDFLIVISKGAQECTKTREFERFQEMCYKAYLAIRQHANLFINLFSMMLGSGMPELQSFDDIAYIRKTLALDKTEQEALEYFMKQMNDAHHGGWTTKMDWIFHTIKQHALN
T1 sequence (P27986 whole entry partner): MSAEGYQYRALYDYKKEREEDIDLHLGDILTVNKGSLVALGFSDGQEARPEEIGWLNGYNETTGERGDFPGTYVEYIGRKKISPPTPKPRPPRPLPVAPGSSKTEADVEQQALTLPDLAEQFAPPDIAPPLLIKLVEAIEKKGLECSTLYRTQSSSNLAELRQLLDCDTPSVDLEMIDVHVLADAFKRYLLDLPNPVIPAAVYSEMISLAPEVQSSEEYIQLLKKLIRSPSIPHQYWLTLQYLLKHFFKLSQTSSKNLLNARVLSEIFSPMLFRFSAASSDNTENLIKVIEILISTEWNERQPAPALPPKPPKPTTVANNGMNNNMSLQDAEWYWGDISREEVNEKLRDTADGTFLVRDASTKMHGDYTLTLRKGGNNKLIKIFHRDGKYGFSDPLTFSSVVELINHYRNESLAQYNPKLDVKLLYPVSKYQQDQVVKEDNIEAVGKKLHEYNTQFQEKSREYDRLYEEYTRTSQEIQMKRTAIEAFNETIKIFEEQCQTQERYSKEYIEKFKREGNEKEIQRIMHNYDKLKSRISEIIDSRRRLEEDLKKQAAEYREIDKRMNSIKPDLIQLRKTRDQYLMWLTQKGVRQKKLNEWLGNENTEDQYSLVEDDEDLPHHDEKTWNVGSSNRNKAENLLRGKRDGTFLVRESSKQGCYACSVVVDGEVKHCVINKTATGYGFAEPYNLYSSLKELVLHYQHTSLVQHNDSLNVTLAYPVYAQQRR

IC50 (PI3Kα (p110α/p85α)) [nM]	IC50 [1] [nM]	melting point [°C]	Compound	IC50 (HCC1806 cells) [nM]	IC50 (SKBr3 cells) [nM]	IC50 (BT474 cells) [nM]	IC50 (MDA-MB-361 cells) [nM]	IC50 (MDA-MB-453 cells) [nM]	IC50 (MCF-7 cells) [nM]	IC50 (T47D cells) [nM]	IC50 (ZR-75-1 cells) [nM]	IC50 (MOLT-4 cells) [nM]	IC50 (HL-60 cells) [nM]	IC50 (U937 cells) [nM]	IC50 (THP-1 cells) [nM]	IC50 (MV-4-11 cells) [nM]	IC50 (Pfeiffer cells) [nM]	IC50 (Raji cells) [nM]	IC50 (Daudi cells) [nM]	IC50 (K562 cells) [nM]	also measured
> 10000	< 100	139 to 143	CS(=O)(=O)N1CCN(Cc2cc3nc(-c4cccc5c4cnn5CCCCC(=O)NO)nc(N4CCOCC4)c3s2)CC1 [Compound 3, N-hydroxy-5-(4-(6-((4-(methylsulfonyl)piperazin-1-yl)methyl)-4-morpholinothieno[3,2-d]pyrimidin-2-yl)-1H-indazol-1-yl)pentanamide]	–	–	–	–	–	–	–	–	–	–	–	–	–	–	–	–	–	–
> 10000	< 100	186 to 187	CS(=O)(=O)N1CCN(Cc2cc3nc(-c4cccc5c4cnn5CCCCCC(=O)NO)nc(N4CCOCC4)c3s2)CC1 [Compound 4]	–	–	–	–	–	–	–	–	–	–	–	–	–	–	–	–	–	–
–	< 100	–	CNc1ccc(-c2nc(N3CCOCC3)c3sc(CN(C)c4ncc(C(=O)NO)cn4)cc3n2)cn1 [Compound 111, N-Hydroxy-2-(methyl((2-(6-(methylamino)pyridin-3-yl)-4-morpholinothieno[3,2-d]pyrimidin-6-yl)methyl)amino)pyrimidine-5-carboxamide]	10 to 100	10 to 100	< 10	< 10	< 10	< 10	< 10	10 to 100	< 10	< 10	< 10	10 to 100	< 10	< 10	10 to 100	< 10	10 to 100	IC50 (RPMI-8226 cells): < 10 nM; IC50 (ARH77 cells): < 10 nM; IC50 (L1210 cells): < 10 nM; IC50 (P388 D1 cells): < 10 nM

Compound	IC50 (PI3Kα (p110α/p85α)) [nM]	IC50 [1] [nM]	melting point [°C]	IC50 (HCC1806 cells) [nM]	IC50 (SKBr3 cells) [nM]	IC50 (BT474 cells) [nM]	IC50 (MDA-MB-361 cells) [nM]	IC50 (MDA-MB-453 cells) [nM]	IC50 (MCF-7 cells) [nM]	IC50 (T47D cells) [nM]	IC50 (ZR-75-1 cells) [nM]	IC50 (MOLT-4 cells) [nM]	IC50 (HL-60 cells) [nM]	IC50 (U937 cells) [nM]	IC50 (THP-1 cells) [nM]	IC50 (MV-4-11 cells) [nM]	IC50 (Pfeiffer cells) [nM]	IC50 (Raji cells) [nM]	IC50 (Daudi cells) [nM]	IC50 (K562 cells) [nM]	also measured
COc1ccc(-c2nc(N3CCOCC3)c3sc(CN(C)c4ncc(C(=O)NO)cn4)cc3n2)cn1 [Compound 236, N-Hydroxy-2-(((2-(6-methoxypyridin-3-yl)-4-morpholinothieno[3,2-d]pyrimidin-6-yl)methyl)(methyl)amino)pyrimidine-5-carboxamide]	–	< 100	–	10 to 100	10 to 100	< 10	< 10	< 10	< 10	10 to 100	10 to 100	< 10	< 10	< 10	10 to 100	< 10	< 10	10 to 100	10 to 100	100 to 1000	IC50 (MDA-MB-231 cells): 10 to 100 nM; IC50 (HCC1500 cells): < 10 nM; IC50 (UACC-893 cells): 10 to 100 nM; IC50 (MDA-MB-468 cells): 10 to 100 nM; IC50 (SUP-B15 cells): < 10 nM; IC50 (MEG-01 cells): 10 to 100 nM; IC50 (RPMI-8226 cells): < 10 nM; IC50 (ARH77 cells): 10 to 100 nM; IC50 (L1210 cells): 10 to 100 nM; IC50 (P388 D1 cells): 10 to 100 nM
